Read-outs that look alike come from different tables or passages of the source.
Legend:
DU-145 = assay: SRB colorimetric cell growth inhibition assay, DU-145; format: cell-based; settings: Homo sapiens; for GI50: GI=growth inhibition, read-out: GI50 DU-145; for IC (TGI): total growth inhibition (cytostatic effect), read-out: TGI DU-145; for CC50: cell killing (cytotoxic effect)
Method in brief: (§1)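 After uninterrupted treatment, cultures are fixed and stained with sulforhodamine B, and absorbance reflects cell growth and viability. Each value represents the average of triplicate wells with SD.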

LoVo-Dox = assay: SRB colorimetric cell growth inhibition assay, LoVo-Dox (MDR); format: cell-based; settings: Homo sapiens; for GI50: GI=growth inhibition, read-out: GI50 LOVO-DOX; for IC (TGI): total growth inhibition (cytostatic effect), read-out: TGI LOVO-DOX; for CC50: cell killing (cytotoxic effect)
Method in brief: as §1

A-549 = assay: SRB colorimetric cell growth inhibition assay, A-549; format: cell-based; settings: Homo sapiens; for GI50: GI=growth inhibition, read-out: GI50 A-549; for IC (TGI): total growth inhibition (cytostatic effect), read-out: TGI A-549; for CC50: cell killing (cytotoxic effect)
Method in brief: as §1

LoVo = assay: SRB colorimetric cell growth inhibition assay, LoVo; format: cell-based; settings: Homo sapiens, LoVo; for CC50: cell killing (cytotoxic effect); for GI50: GI=growth inhibition, read-out: GI50 LOVO; for IC (TGI): total growth inhibition (cytostatic effect), read-out: TGI LOVO
Method in brief: as §1

PANC-1 = assay: SRB colorimetric cell growth inhibition assay, PANC-1; format: cell-based; settings: Homo sapiens; for GI50: GI=growth inhibition, read-out: GI50 PANC-1; for IC (TGI): total growth inhibition (cytostatic effect), read-out: TGI PANC-1; for CC50: cell killing (cytotoxic effect)
Method in brief: as §1

human topoisomerase I = target: T1, human topoisomerase I (Homo sapiens, UniProt P11387); assay: Topoisomerase I DNA relaxation assay (supercoiled plasmid DNA); format: biochemical; settings: for stimulation of DNA cleavage by topoisomerase I / inhibition of topoisomerase I (nicked DNA band) in DNA relaxation assay: supercoiled plasmid DNA, each compound tested at 1 μM, agarose gel with ethidium bromide
T1 sequence (P11387 1-765): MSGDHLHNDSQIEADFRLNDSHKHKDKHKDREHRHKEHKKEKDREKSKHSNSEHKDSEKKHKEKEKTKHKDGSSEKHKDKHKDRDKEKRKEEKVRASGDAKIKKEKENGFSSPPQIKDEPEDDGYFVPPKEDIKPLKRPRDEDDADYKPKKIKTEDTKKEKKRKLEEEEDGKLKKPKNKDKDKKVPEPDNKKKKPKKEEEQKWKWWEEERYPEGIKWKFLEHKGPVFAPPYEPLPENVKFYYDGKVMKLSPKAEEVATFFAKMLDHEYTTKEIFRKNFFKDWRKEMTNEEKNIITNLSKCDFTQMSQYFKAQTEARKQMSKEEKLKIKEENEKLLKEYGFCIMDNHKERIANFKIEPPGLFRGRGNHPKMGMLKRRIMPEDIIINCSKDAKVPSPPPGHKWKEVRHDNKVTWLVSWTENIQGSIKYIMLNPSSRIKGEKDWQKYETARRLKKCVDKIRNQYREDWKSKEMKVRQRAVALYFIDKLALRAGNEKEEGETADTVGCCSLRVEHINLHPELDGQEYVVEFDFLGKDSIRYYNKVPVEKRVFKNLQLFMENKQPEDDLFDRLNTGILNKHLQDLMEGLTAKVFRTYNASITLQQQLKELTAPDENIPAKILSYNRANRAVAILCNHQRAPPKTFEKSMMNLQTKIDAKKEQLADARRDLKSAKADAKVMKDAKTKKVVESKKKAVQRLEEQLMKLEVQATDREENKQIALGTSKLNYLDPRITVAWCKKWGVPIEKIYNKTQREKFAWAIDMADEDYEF
Method in brief: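 Supercoiled plasmid DNA was relaxed by human topoisomerase I with or without test compound at 1 μM. Products were resolved by agarose gel electrophoresis with ethidium bromide staining.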

IGROV-ET = assay: SRB colorimetric cell growth inhibition assay, IGROV-ET (ET-743 resistant); format: cell-based; settings: Homo sapiens; for GI50: GI=growth inhibition, read-out: GI50 IGROV-ET; for IC (TGI): total growth inhibition (cytostatic effect), read-out: TGI IGROV-ET; for CC50: cell killing (cytotoxic effect)
Method in brief: as §1

SKOV-3 = assay: SRB colorimetric cell growth inhibition assay, SKOV-3; format: cell-based; settings: Homo sapiens
Method in brief: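 Sulforhodamine B colorimetric assay of cell growth and viability, mean ± SD of triplicate wells. Parameters derived: GI (growth inhibition), TGI (total growth inhibition, cytostatic) and LC (cell killing, cytotoxic).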

HT-29 = assay: SRB colorimetric cell growth inhibition assay, HT-29; format: cell-based; settings: Homo sapiens; for GI50: GI=growth inhibition, read-out: GI50 HT-29; for IC (TGI): total growth inhibition (cytostatic effect), read-out: TGI HT-29; for CC50: cell killing (cytotoxic effect)
Method in brief: as §1

SK-MEL-28 = assay: SRB colorimetric cell growth inhibition assay, SK-MEL-28; format: cell-based; settings: Homo sapiens; for GI50: GI=growth inhibition, read-out: GI50 MEL-28; for IC (TGI): total growth inhibition (cytostatic effect), read-out: TGI MEL-28; for CC50: cell killing (cytotoxic effect)
Method in brief: as §1

IGROV = assay: SRB colorimetric cell growth inhibition assay, IGROV; format: cell-based
Method in brief: as §1

SK-BR-3 = assay: SRB colorimetric cell growth inhibition assay, SK-BR-3; format: cell-based; settings: Homo sapiens; for GI50: GI=growth inhibition, read-out: GI50 SK-BR-3; for IC (TGI): total growth inhibition (cytostatic effect), read-out: TGI SK-BR-3; for CC50: cell killing (cytotoxic effect)
Method in brief: as §1

K-562 = assay: SRB colorimetric cell growth inhibition assay, K-562; format: cell-based; settings: Homo sapiens; for GI50: GI=growth inhibition, read-out: GI50 K-562; for IC (TGI): total growth inhibition (cytostatic effect), read-out: TGI K-562; for CC50: cell killing (cytotoxic effect)
Method in brief: as §1

LNCaP = assay: SRB colorimetric cell growth inhibition assay, LNCaP; format: cell-based; settings: Homo sapiens, LNCaP; for GI50: GI=growth inhibition, read-out: GI50 LN-caP; for IC (TGI): total growth inhibition (cytostatic effect), read-out: TGI LN-caP; for CC50: cell killing (cytotoxic effect)
Method in brief: as §1

[1] = Homo sapiens, IGROV; GI=growth inhibition; read-out: GI50 IGROV

Row | Structure (SMILES) | GI50 (DU-145; DU-145, DU-145) | IC (TGI) (DU-145; DU-145, DU-145) | GI50 (LoVo-Dox; LOVO-DOX) | IC (TGI) (LoVo-Dox; LOVO-DOX) | GI50 (A-549; A549, A-549) | IC (TGI) (A-549; A549, A-549) | GI50 (LoVo) | IC (TGI) (LoVo) | GI50 (PANC-1; PANC-1, PANC-1) | IC (TGI) (PANC-1; PANC-1, PANC-1) | stimulation of DNA cleavage by topoisomerase I / inhibition of topoisomerase I (nicked DNA band) in DNA relaxation assay (human topoisomerase I) | GI50 (IGROV-ET; IGROV-ET) | IC (TGI) (IGROV-ET; IGROV-ET) | GI50 (HT-29; HT-29, HT-29) | IC (TGI) (HT-29; HT-29, HT-29) | GI50 (SK-MEL-28; SK-MEL-28, MEL-28) | IC (TGI) (SK-MEL-28; SK-MEL-28, MEL-28) | GI50 (IGROV; [1]) | GI50 (SK-BR-3; SK-BR-3, SK-BR-3) | IC (TGI) (SK-BR-3; SK-BR-3, SK-BR-3) | other results
1 | COc1cc(-c2c3c4cc(OC)c(O)cc4oc(=O)c3n3ccc4cc(O)c(OC)cc4c23)ccc1O [Compound 3, lamellarin D, reference compound] | 0.019 µM | 0.0797 µM | 0.42 µM | 1.67 µM | 0.0204 µM | 1.14 µM | 0.398 µM | 0.965 µM | 0.248 µM | 2.2 µM | significantly amplified | 0.214 µM | 1.16 µM | 5.33 µM | 19 µM | 0.0881 µM | 1.77 µM | 0.236 µM | 0.106 µM | 0.767 µM | CC50 (DU-145; DU-145, read-out: LC50 DU-145, DU-145): 20 µM; CC50 (LoVo-Dox; read-out: LC50 LOVO-DOX, LOVO-DOX): 20 µM; CC50 (A-549; A549, read-out: LC50 A-549, A-549): 15.5 µM; CC50 (LoVo; read-out: LC50 LOVO, LOVO): 2 µM; CC50 (PANC-1; PANC-1, read-out: LC50 PANC-1, PANC-1): 20 µM; CC50 (IGROV-ET; read-out: LC50 IGROV-ET, IGROV-ET): 20 µM; GI50 (SKOV-3; SK-OV-3, SKOV-3, GI=growth inhibition, read-out: GI50 SKOV-3): 0.0537 µM; IC (TGI) (SKOV-3; SK-OV-3, SKOV-3, total growth inhibition (cytostatic effect), read-out: TGI SKOV-3): 0.24 µM; CC50 (HT-29; HT-29, read-out: LC50 HT-29, HT-29): 20 µM; CC50 (SK-MEL-28; SK-MEL-28, read-out: LC50 MEL-28, MEL-28): 11.3 µM; CC50 (IGROV; Homo sapiens, IGROV, read-out: LC50 IGROV, IGROV; cell killing (cytotoxic effect)): 20 µM; IC (TGI) (IGROV; Homo sapiens; IGROV; total growth inhibition (cytostatic effect); read-out: TGI IGROV): 1.06 µM; CC50 (SK-BR-3; SK-BR-3, read-out: LC50 SK-BR-3, SK-BR-3): 7.69 µM; GI50 (K-562; K562, K-562): 0.0869 µM; IC (TGI) (K-562; K562, K-562): 0.791 µM; CC50 (K-562; K562, read-out: LC50 K-562, K-562): 8.15 µM; GI50 (LNCaP; LN-caP): 0.123 µM; IC (TGI) (LNCaP; LN-caP): 0.398 µM; CC50 (LNCaP; read-out: LC50 LN-caP, LN-caP): 1.06 µM
2 | COc1cc(-c2c3c4cc(OC)c(OC(=O)CCCCCN)cc4oc(=O)c3n3ccc4cc(OC(=O)CCCCCN)c(OC)cc4c23)ccc1OC(=O)CCCCCN [Compound 169] | 0.0151 µM | 0.0901 µM | 0.258 µM | 0.922 µM | 0.0646 µM | 1.14 µM | 0.159 µM | 0.418 µM | 0.152 µM | 10.5 µM | inhibit topoisomerase I | 0.0418 µM | 0.301 µM | 2.97 µM | 10.5 µM | 0.0464 µM | 0.529 µM | 0.0471 µM | 0.0387 µM | 0.132 µM | CC50 (DU-145; DU-145, DU-145, read-out: LC50 DU-145): 0.0105 µM; CC50 (LoVo-Dox; LOVO-DOX, read-out: LC50 LOVO-DOX): 1050 µM; CC50 (A-549; A549, A-549, read-out: LC50 A-549): 9.74 µM; CC50 (LoVo; read-out: LC50 LOVO): 1.42 µM; CC50 (PANC-1; PANC-1, PANC-1, read-out: LC50 PANC-1): 10.5 µM; stimulation of DNA cleavage by topoisomerase I, concentration-dependent measurements compared with LAM-D (3) (human topoisomerase I; dose-response analysis): equally efficient to (3); CC50 (IGROV-ET; IGROV-ET, read-out: LC50 IGROV-ET): 10.5 µM; CC50 (HT-29; HT-29, HT-29, read-out: LC50 HT-29): 10.5 µM; CC50 (SK-MEL-28; SK-MEL-28, MEL-28, read-out: LC50 MEL-28): 10.5 µM; CC50 (IGROV; Homo sapiens, IGROV; cell killing (cytotoxic effect); read-out: LC50 IGROV): 10.5 µM; IC (TGI) (IGROV; Homo sapiens, IGROV; total growth inhibition (cytostatic effect); read-out: TGI IGROV): 1.92 µM; CC50 (SK-BR-3; SK-BR-3, SK-BR-3, read-out: LC50 SK-BR-3): 10.5 µM; GI50 (K-562; K562, K-562): 0.068 µM; CC50 (K-562; K562, K-562, read-out: LC50 K-562): 10.5 µM; IC (TGI) (K-562; K562, K-562): 3.21 µM; GI50 (LNCaP; LN-caP): 0.0373 µM; CC50 (LNCaP; LN-caP, read-out: LC50 LN-caP): 1.24 µM; IC (TGI) (LNCaP; LN-caP): 0.183 µM

Source: patent US7396837B2, “Antitumoral analogs of lamellarins” (Pharma Mar, S.A.U., priority 2002, dated 2008)
